US9307766B2, “Isoxazoline derivatives as insecticidal compounds” (Syngenta Participations AG, priority 2011, dated 2016)

Legend:
Format in all cases: in vivo
[1] = test system: Plutella xylostella; experiment: Plutella xylostella (diamond back moth) artificial diet test; conditions: 144 h, 200 ppm (concentration in well 18 ppm) on artificial diet, L2 larvae, larval mortality and growth regulation after 6 days
Experimental: Plutella xylostella (Diamond Back Moth):
(§1) 24-well microtiter plate (MTP) with artificial diet was treated with test solutions at an application rate of 200 ppm (concentration in well 18 ppm) by pipetting. After drying, the MTP's were infested with L2 larvae (7-12 per well). After an incubation period of 6 days, samples were checked for larval mortality and growth regulation.

[2] = test system: Spodoptera littoralis; experiment: Spodoptera littoralis (Egyptian cotton leafworm) leaf disc spray test; conditions: foliar, 72 h, 200 ppm sprayed on cotton leaf discs, L1 larvae, mortality, feeding behavior, growth regulation 3 days after treatment
Excerpt: Spodoptera littoralis (Egyptian Cotton Leafworm):
Cotton leaf discs were placed on agar in a 24-well microtiter plate and sprayed with test solutions at an application rate of 200 ppm. After drying, the leaf discs were infested with 5 L1 larvae. The samples were checked for mortality, feeding behavior, and growth regulation 3 days after treatment (DAT).

[3] = test system: Heliothis virescens; experiment: Heliothis virescens (tobacco budworm) egg test on artificial diet; conditions: 96 h, 200 ppm (concentration in well 18 ppm) by pipetting, eggs 0-24 h old on artificial diet, egg mortality, larval mortality, growth regulation after 4 days
Experimental: Heliothis virescens (Tobacco Budworm):
Eggs (0-24 h old) were placed in 24-well microtiter plate on artificial diet and treated with test solutions at an application rate of 200 ppm (concentration in well 18 ppm) by pipetting. After an incubation period of 4 days, samples were checked for egg mortality, larval mortality, and growth regulation.

[4] = test system: Tetranychus urticae; experiment: Tetranychus urticae (two-spotted spider mite) leaf disc spray test; conditions: foliar, 192 h, 200 ppm sprayed on bean leaf discs, mite populations of mixed ages, egg, larval and adult mortality 8 days later
Excerpt: Tetranychus urticae (Two-Spotted Spider Mite):
Bean leaf discs on agar in 24-well microtiter plates were sprayed with test solutions at an application rate of 200 ppm. After drying, the leaf discs are infested with mite populations of mixed ages. 8 days later, discs are checked for egg mortality, larval mortality, and adult mortality.

[5] = test system: Thrips tabaci; experiment: Thrips tabaci (onion thrips) leaf disc spray test; conditions: foliar, 168 h, 200 ppm sprayed on sunflower leaf discs, thrip population of mixed ages, mortality after 7 days
Experimental: Thrips tabaci (Onion Thrips):
Sunflower leaf discs were placed on agar in a 24-well microtiter plate and sprayed with test solutions at an application rate of 200 ppm. After drying, the leaf discs were infested with a thrip population of mixed ages. After an incubation period of 7 days, samples were checked for mortality.

[6] = test system: Diabrotica balteata; experiment: Diabrotica balteata (corn root worm) artificial diet test; conditions: 120 h, 200 ppm (concentration in well 18 ppm) on artificial diet, L2 larvae, larval mortality and growth regulation after 5 days
Experimental: Diabrotica balteata (Corn Root Worm):
as §1, with “A 24-well” for “24-well”, “(6-10” for “(7-12”, “5” for “6”

Measured: pest or weed control at 200 ppm

O=C(NC1CS(=O)(=O)C1)c1ccc(C2=NOC(c3cc(Cl)cc(Cl)c3)(C(F)(F)F)C2)c2ncccc12 (stereo not drawn) [Compound D09, 8-[5-(3,5-dichlorophenyl)-5-(trifluoromethyl)-4H-isoxazol-3-yl]-N-(1,1-dioxothietan-3-yl)quinoline-5-carboxamide]
≥ 80%: [1] | [2]

O=C(NC1C[S+]([O-])C1)c1ccc(C2=NOC(c3cc(Cl)cc(Cl)c3)(C(F)(F)F)C2)c2ncccc12 (stereo not drawn) [Compound D11, 8-[5-(3,5-dichlorophenyl)-5-(trifluoromethyl)-4H-isoxazol-3-yl]-N-(1-oxothietan-3-yl)quinoline-5-carboxamide]
≥ 80%: [3] | [1] | [2]

O=C(NC1CS(=O)(=O)C1)c1ccc(C2=NOC(c3cc(Cl)cc(Cl)c3)(C(F)(F)F)C2Br)c2ccccc12 (stereo not drawn) [Compound D01, 4-[4-bromo-5-(3,5-dichlorophenyl)-5-(trifluoromethyl)-4H-isoxazol-3-yl]-N-(1,1-dioxothietan-3-yl)naphthalene-1-carboxamide]
≥ 80%: all assays above

O=C(CNC(=O)c1ccc(C2=NOC(c3cc(Cl)cc(Cl)c3)(C(F)(F)F)C2)c2ccccc12)NC1CSC1 (stereo not drawn) [Compound D08, 4-[5-(3,5-dichlorophenyl)-5-(trifluoromethyl)-4H-isoxazol-3-yl]-N-[2-oxo-2-(thietan-3-ylamino)ethyl]naphthalene-1-carboxamide]
not listed: [3]
≥ 80%: all other assays above

CC1(NC(=O)c2cnc(C3=NOC(c4cc(Cl)cc(Cl)c4)(C(F)(F)F)C3)c3ccccc23)CSC1 (stereo not drawn) [Compound D14, 1-[5-(3,5-dichlorophenyl)-5-(trifluoromethyl)-4H-isoxazol-3-yl]-N-(3-methylthietan-3-yl)isoquinoline-4-carboxamide]
not listed: [2]
≥ 80%: all other assays above

O=C(NC1C[S+]([O-])C1)c1ccc(C2=NOC(c3cc(Cl)cc(Cl)c3)(C(F)(F)F)C2Br)c2ccccc12 (stereo not drawn) [Compound D03, 4-[4-bromo-5-(3,5-dichlorophenyl)-5-(trifluoromethyl)-4H-isoxazol-3-yl]-N-(1-oxothietan-3-yl)naphthalene-1-carboxamide]
≥ 80%: all assays above

CC1(NC(=O)CNC(=O)c2ccc(C3=NOC(c4cc(Cl)cc(Cl)c4)(C(F)(F)F)C3)c3ccccc23)CSC1 (stereo not drawn) [Compound D06, 4-[5-(3,5-dichlorophenyl)-5-(trifluoromethyl)-4H-isoxazol-3-yl]-N-[2-[(3-methylthietan-3-yl)amino]-2-oxo-ethyl]naphthalene-1-carboxamide]
≥ 80%: all assays above

O=C(NC1CSC1)c1ccc(C2=NOC(c3cc(Cl)cc(Cl)c3)(C(F)(F)F)C2)c2cccnc12 (stereo not drawn) [Compound D12, 5-[5-(3,5-dichlorophenyl)-5-(trifluoromethyl)-4H-isoxazol-3-yl]-N-(thietan-3-yl)quinoline-8-carboxamide]
≥ 80%: all assays above

O=C(NC1CS(=O)(=O)C1)c1cnc(C2=NOC(c3cc(Cl)cc(Cl)c3)(C(F)(F)F)C2)c2ccccc12 (stereo not drawn) [Compound D13, 1-[5-(3,5-dichlorophenyl)-5-(trifluoromethyl)-4H-isoxazol-3-yl]-N-(1,1-dioxothietan-3-yl)isoquinoline-4-carboxamide]
≥ 80%: [3] | [1] | [2] | [6]

CC1(NC(=O)c2ccc(C3=NOC(c4cc(Cl)cc(Cl)c4)(C(F)(F)F)C3Br)c3ccccc23)CSC1 (stereo not drawn) [Compound D02, 4-[4-bromo-5-(3,5-dichlorophenyl)-5-(trifluoromethyl)-4H-isoxazol-3-yl]-N-(3-methylthietan-3-yl)naphthalene-1-carboxamide]
≥ 80%: all assays above

O=C(NC1CSC1)c1ccc(C2=NOC(c3cc(Cl)cc(Cl)c3)(C(F)(F)F)C2)c2ncccc12 (stereo not drawn) [Compound D10, 8-[5-(3,5-dichlorophenyl)-5-(trifluoromethyl)-4H-isoxazol-3-yl]-N-(thietan-3-yl)quinoline-5-carboxamide]
≥ 80%: [3] | [1] | [2] | [6]

O=C(CNC(=O)c1ccc(C2=NOC(c3cc(Cl)cc(Cl)c3)(C(F)(F)F)C2)c2ccccc12)NC1CS(=O)(=O)C1 (stereo not drawn) [Compound D05, 4-[5-(3,5-dichlorophenyl)-5-(trifluoromethyl)-4H-isoxazol-3-yl]-N-[2-[(1,1-dioxothietan-3-yl)amino]-2-oxo-ethyl]naphthalene-1-carboxamide]
≥ 80%: all assays above

O=C(CNC(=O)c1ccc(C2=NOC(c3cc(Cl)cc(Cl)c3)(C(F)(F)F)C2)c2ccccc12)NC1C[S+]([O-])C1 (stereo not drawn) [Compound D07, 4-[5-(3,5-dichlorophenyl)-5-(trifluoromethyl)-4H-isoxazol-3-yl]-N-[2-oxo-2-[(1-oxothietan-3-yl)amino]ethyl]naphthalene-1-carboxamide]
≥ 80%: [1] | [4] | [2] | [5]

O=C(NC1C[S+]([O-])C1)c1cnc(C2=NOC(c3cc(Cl)cc(Cl)c3)(C(F)(F)F)C2)c2ccccc12 (stereo not drawn) [Compound D16, 1-[5-(3,5-dichlorophenyl)-5-(trifluoromethyl)-4H-isoxazol-3-yl]-N-(1-oxothietan-3-yl)isoquinoline-4-carboxamide]
≥ 80%: all assays above

O=C(NC1CSC1)c1cnc(C2=NOC(c3cc(Cl)cc(Cl)c3)(C(F)(F)F)C2)c2ccccc12 (stereo not drawn) [Compound D15, 1-[5-(3,5-dichlorophenyl)-5-(trifluoromethyl)-4H-isoxazol-3-yl]-N-(thietan-3-yl)isoquinoline-4-carboxamide]
≥ 80%: all assays above

O=C(NC1CSC1)c1ccc(C2=NOC(c3cc(Cl)cc(Cl)c3)(C(F)(F)F)C2Br)c2ccccc12 (stereo not drawn) [Compound D04, 4-[4-bromo-5-(3,5-dichlorophenyl)-5-(trifluoromethyl)-4H-isoxazol-3-yl]-N-(thietan-3-yl)naphthalene-1-carboxamide]
≥ 80%: all assays above
